PubChem BioAssay AID330 (DTP/NCI, 2004)
Several values for one entry are separate records, joined by “and”; a condition that tells them apart may be missing. Identical values can stand only once. Toxic doses and inconclusive results are not listed.

System: P388 leukemia ip, CD2F1 mice, survival T/C
Assay: NCI In Vivo Anticancer Drug Screen. Data for tumor model P388 Leukemia (intraperitoneal) in CD2F1 (CDF1) mice
Details: endpoint: median survival time, higher = longer survival
Procedure, shortened: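 Mice carrying the transplanted tumor received test compound or vehicle. Survival was recorded in each group, and the value is the treated-group measurement divided by that of the vehicle-treated control group.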

[1] = dose: 100.0 mg/kg/injection, schedule: Q01DX009 (ip), vehicle: saline
[2] = dose: 200.0 mg/kg/injection, schedule: Q01DX009 (ip), vehicle: saline
[3] = dose: 50.0 mg/kg/injection, schedule: Q01DX009 (ip), vehicle: saline with Tween-80
[4] = dose: 100.0 mg/kg/injection, schedule: Q01DX009 (ip), vehicle: saline with Tween-80
[5] = dose: 200.0 mg/kg/injection, schedule: Q01DX009 (ip), vehicle: saline with Tween-80
[6] = dose: 25.0 mg/kg/injection, schedule: Q01DX005 (ip), vehicle: Klucel (hydroxypropylcellulose) (HPC)
[7] = dose: 50.0 mg/kg/injection, schedule: Q01DX005 (ip), vehicle: Klucel (hydroxypropylcellulose) (HPC)
[8] = dose: 100.0 mg/kg/injection, schedule: Q01DX005 (ip), vehicle: Klucel (hydroxypropylcellulose) (HPC)
[9] = dose: 200.0 mg/kg/injection, schedule: Q01DX005 (ip), vehicle: Klucel (hydroxypropylcellulose) (HPC)
[10] = dose: 50.0 mg/kg/injection, schedule: Q01DX009 (ip), vehicle: saline
[11] = dose: 50.0 mg/kg/injection, schedule: Q01DX005 (ip), vehicle: saline with Tween-80
[12] = dose: 100.0 mg/kg/injection, schedule: Q01DX005 (ip), vehicle: saline with Tween-80
[13] = dose: 200.0 mg/kg/injection, schedule: Q01DX005 (ip), vehicle: saline with Tween-80
[14] = dose: 60.0 mg/kg/injection, schedule: Q01DX005 (ip), vehicle: saline with Tween-80
[15] = dose: 120.0 mg/kg/injection, schedule: Q01DX005 (ip), vehicle: saline with Tween-80
[16] = dose: 240.0 mg/kg/injection, schedule: Q01DX005 (ip), vehicle: saline with Tween-80

CN(C(=S=O)c1ccc(Cl)cc1)c1ccccc1
T/C (dose: 25.0 mg/kg/injection, schedule: Q01DX009 (ip), vehicle: suspension in saline): 101 % of control
T/C (dose: 50.0 mg/kg/injection, schedule: Q01DX009 (ip), vehicle: suspension in saline): 95 % of control
T/C [1]: 90 % of control
T/C (dose: 100.0 mg/kg/injection, schedule: Q01DX009 (ip), vehicle: suspension in saline): 105 % of control and 97 % of control
T/C [2]: 94 % of control

O=C(Oc1ccccc1)C(Cc1ccccc1)NC(=O)C(F)(F)F (stereo not given)
T/C [3]: 108 % of control
T/C [4]: 99 % of control
T/C [5]: 103 % of control

[Cl][Cu][Cl].c1ccc2[nH]cnc2c1.c1ccc2[nH]cnc2c1
T/C (dose: 6.25 mg/kg/injection, schedule: Q01DX009 (ip), vehicle: Klucel (hydroxypropylcellulose) (HPC)): 113 % of control
T/C (dose: 12.5 mg/kg/injection, schedule: Q01DX009 (ip), vehicle: Klucel (hydroxypropylcellulose) (HPC)): 104 % of control
T/C (dose: 25.0 mg/kg/injection, schedule: Q01DX009 (ip), vehicle: Klucel (hydroxypropylcellulose) (HPC)): 100 % of control

CCOC(=O)c1ccc2c(c1)nc(-c1ccccn1)n2CCc1ccncc1
T/C [6]: 103 % of control
T/C [7]: 102 % of control
T/C [8]: 102 % of control
T/C [9]: 94 % of control

O=[N+]([O-])c1cc2c(cc1I)C1C(C3C2C2(Cl)C(Cl)=C(Cl)C3(Cl)C2(Cl)Cl)C2(Cl)C(Cl)=C(Cl)C1(Cl)C2(Cl)Cl (stereo not given)
T/C [10]: 108 % of control
T/C [1]: 106 % of control
T/C [2]: 106 % of control

Cc1ccc(C(=O)/C(N)=C\c2c[nH]c3ccccc23)cc1
T/C (dose: 100.0 mg/kg/injection, schedule: Q01DX001 (ip), vehicle: saline with Tween-80): 104 % of control
T/C (dose: 200.0 mg/kg/injection, schedule: Q01DX001 (ip), vehicle: saline with Tween-80): 100 % of control
T/C (dose: 400.0 mg/kg/injection, schedule: Q01DX001 (ip), vehicle: saline with Tween-80): 98 % of control

NC(=S)c1cccc(C2Nc3ccccc3O2)c1 (stereo not given)
T/C [3]: 94 % of control
T/C [4]: 104 % of control
T/C [5]: 104 % of control

CC1(C)N=C(Oc2cc(Cl)cc(Cl)c2)NC(=S)N1
T/C (dose: 60.0 mg/kg/injection, schedule: Q01DX005 (ip), vehicle: DMSO): 109 % of control
T/C (dose: 120.0 mg/kg/injection, schedule: Q01DX005 (ip), vehicle: DMSO): 100 % of control
T/C (dose: 240.0 mg/kg/injection, schedule: Q01DX005 (ip), vehicle: DMSO): 97 % of control

C=C(c1ccccc1)N1N=NC2CCOC21 (stereo not given)
T/C [11]: 105 % of control
T/C [12]: 99 % of control
T/C [13]: 100 % of control

COc1cc(/C=C/C(=O)O)cc(OC)c1
T/C [7]: 103 % of control
T/C [8]: 103 % of control
T/C [9]: 109 % of control

COc1ccc(/C=C/c2ccc3ccccc3n2)c(OC)c1
T/C [4]: 100 % of control
T/C [5]: 100 % of control
T/C (dose: 400.0 mg/kg/injection, schedule: Q01DX009 (ip), vehicle: saline with Tween-80): 100 % of control

CCCCCCCCCCCCCCCCSc1nc2ccc(N=Cc3ccccc3O)cc2s1
T/C (dose: 100.0 mg/kg/injection, schedule: Q04DX003 (ip), vehicle: Klucel (hydroxypropylcellulose) (HPC)): 92 % of control
T/C (dose: 200.0 mg/kg/injection, schedule: Q04DX003 (ip), vehicle: Klucel (hydroxypropylcellulose) (HPC)): 90 % of control
T/C (dose: 400.0 mg/kg/injection, schedule: Q04DX003 (ip), vehicle: Klucel (hydroxypropylcellulose) (HPC)): 91 % of control

Cc1cc(=O)[nH]c(/N=C(/N)N(C)C)n1
T/C [10]: 101 % of control
T/C [1]: 98 % of control
T/C [2]: 108 % of control

O=c1oc2c(c(=O)n1-c1ccccc1)CC1(CCCCC1)C2
T/C (dose: 50.0 mg/kg/injection, schedule: Q01DX009 (ip), vehicle: Klucel (hydroxypropylcellulose) (HPC)): 103 % of control
T/C (dose: 100.0 mg/kg/injection, schedule: Q01DX009 (ip), vehicle: Klucel (hydroxypropylcellulose) (HPC)): 113 % of control
T/C (dose: 200.0 mg/kg/injection, schedule: Q01DX009 (ip), vehicle: Klucel (hydroxypropylcellulose) (HPC)): 105 % of control

O=C(O)c1cc(O)ccc1O
T/C (dose: 25.0 mg/kg/injection, schedule: Q01DX009 (ip), vehicle: saline): 104 % of control
T/C [10]: 90 % of control
T/C [1]: 97 % of control
T/C [2]: 94 % of control

Nc1nc(N)c2c(n1)=NC(c1cccc3ccccc13)N=2 (stereo not given)
T/C (dose: 25.0 mg/kg/injection, schedule: Q01DX009 (ip), vehicle: other): 101 % of control
T/C (dose: 50.0 mg/kg/injection, schedule: Q01DX009 (ip), vehicle: other): 106 % of control
T/C (dose: 100.0 mg/kg/injection, schedule: Q01DX009 (ip), vehicle: other): 102 % of control
T/C (dose: 200.0 mg/kg/injection, schedule: Q01DX009 (ip), vehicle: other): 99 % of control
T/C (dose: 400.0 mg/kg/injection, schedule: Q01DX009 (ip), vehicle: other): 106 % of control

CC(C)(OC(=O)NC(CC(N)=O)C(=O)O)c1ccc(N=Nc2ccccc2)cc1 (stereo not given)
T/C [3]: 97 % of control
T/C [4]: 92 % of control
T/C [5]: 92 % of control

COC(=O)c1c(O)c(OC)c(-c2ccccc2)[nH]c1=O
T/C [14]: 89 % of control
T/C [15]: 89 % of control

O=S(=O)(OCCF)c1cc(Cl)c(Cl)cc1Cl
T/C (dose: 12.5 mg/kg/injection, schedule: Q01DX005 (ip), vehicle: Klucel (hydroxypropylcellulose) (HPC)): 98 % of control
T/C [6]: 98 % of control
T/C [7]: 89 % of control

CCn1c2ccccc2c2cc(NC(=O)N3CCCCC3)ccc21
T/C [11]: 95 % of control
T/C [12]: 95 % of control
T/C [13]: 90 % of control

Cc1ccc(S(=O)(=O)N/N=C/c2c(-c3ccccc3)nc3n2CCS3)cc1
T/C (dose: 100.0 mg/kg/injection, schedule: Q01DX001 (ip), vehicle: Klucel (hydroxypropylcellulose) (HPC)): 99 % of control
T/C (dose: 200.0 mg/kg/injection, schedule: Q01DX001 (ip), vehicle: Klucel (hydroxypropylcellulose) (HPC)): 93 % of control
T/C (dose: 400.0 mg/kg/injection, schedule: Q01DX001 (ip), vehicle: Klucel (hydroxypropylcellulose) (HPC)): 94 % of control

O=C1c2ccccc2C(=O)N1C1Cc2nc3ccccc3n2C1=O (stereo not given)
T/C [14]: 98 % of control
T/C [15]: 93 % of control
T/C [16]: 89 % of control

CCOC(=O)c1cnc2c(C)ccc(C)c2c1Nc1ccc2c(c1)OCO2
T/C (dose: 60.0 mg/kg/injection, schedule: Q01DX005 (ip), vehicle: Klucel + Tween-80): 92 % of control
T/C (dose: 120.0 mg/kg/injection, schedule: Q01DX005 (ip), vehicle: Klucel + Tween-80): 90 % of control
T/C (dose: 240.0 mg/kg/injection, schedule: Q01DX005 (ip), vehicle: Klucel + Tween-80): 91 % of control

Cc1cc(Cl)ccc1NC(=O)C1C(=O)N(c2ccc(Cl)cc2C)C(=O)/C1=N\NC(N)=O (stereo not given)
T/C [14]: 101 % of control
T/C [15]: 93 % of control
T/C [16]: 98 % of control

COc1ccc(C2CC(=O)c3c(O)cc(OC4OC(COC5OC(C)C(O)C(O)C5O)C(O)C(O)C4O)cc3O2)cc1O (stereo not given)
T/C [11]: 94 % of control
T/C [12]: 100 % of control
T/C [13]: 92 % of control

CNC(=O)OCc1nc(SC)n(C)c1COC(=O)NC
T/C (dose: 25.0 mg/kg/injection, schedule: Q01DX005 (ip), vehicle: saline): 160 % of control
T/C (dose: 30.0 mg/kg/injection, schedule: Q01DX005 (ip), vehicle: saline): 166 % of control and 172 % of control and 187 % of control
T/C (dose: 34.0 mg/kg/injection, schedule: Q01DX005 (ip), vehicle: saline): 158 % of control and 164 % of control and 173 % of control
T/C (dose: 50.0 mg/kg/injection, schedule: Q01DX005 (ip), vehicle: saline): 184 % of control and 193 % of control
T/C (dose: 51.0 mg/kg/injection, schedule: Q01DX005 (ip), vehicle: saline): 186 % of control and 196 % of control and 200 % of control
T/C (dose: 77.0 mg/kg/injection, schedule: Q01DX005 (ip), vehicle: saline): 188 % of control
T/C (dose: 100.0 mg/kg/injection, schedule: Q01DX005 (ip), vehicle: saline): 236 % of control

O=c1[nH]c(=O)c2nc(-c3ccc(Cl)cc3)cnc2[nH]1
T/C (dose: 100.0 mg/kg/injection, schedule: Q04DX003 (ip), vehicle: saline with Tween-80): 94 % of control
T/C (dose: 200.0 mg/kg/injection, schedule: Q04DX003 (ip), vehicle: saline with Tween-80): 102 % of control
T/C (dose: 400.0 mg/kg/injection, schedule: Q04DX003 (ip), vehicle: saline with Tween-80): 101 % of control

Clc1c2ccccc2cc2cccnc12
T/C [10]: 101 % of control
T/C [1]: 100 % of control
T/C [2]: 102 % of control and 86 % of control

CSc1nc(Cl)c(Br)c(N2CC2)n1
T/C [11]: 100 % of control
T/C [12]: 107 % of control
